In ChEMBL document CHEMBL1151274, “Halogenated helianane derivatives from the sponge Spirastrella hartmani” (2005):
Activity calls are given as the source filed them. The rule behind the calls is not given here.

Columns and labels:
Assay type in all cases: functional
HT-29 = experiment: Cytotoxicity against human HT-29 cells by sulforhodamine B assay
MDA-MB-231 = experiment: Cytotoxicity against human MDA-MB-231 cells by sulforhodamine B assay
A549 = experiment: Cytotoxicity against human A549 cells by sulforhodamine B assay

Row | Compound | Activity (HT-29) | Activity (MDA-MB-231) | Activity (A549) | GI50 (HT-29) | GI50 (MDA-MB-231) | GI50 (A549)
1 | Cc1cc2c(cc1Br)[C@@H](C)CCCC(C)(C)O2 | inactive | inactive | inactive |  |  | 
2 | COc1cc2c(cc1O)CCN[C@]21CS[C@@H]2c3c(OC(C)=O)c(C)c4c(c3[C@H](COC1=O)N1[C@@H]2[C@H]2c3c(cc(C)c(OC)c3O)C[C@@H]([C@@H]1O)N2C)OCO4 [TRABECTEDIN] |  |  |  | 0.0197 µM | 0.0184 µM | 0.0263 µM
3 | Cc1cc2c(cc1Cl)[C@@H](C)CCCC(C)(C)O2 |  |  |  | 37.6 µM | 37.6 µM | 37.2 µM
